Reference: article PMC10922478 (Environmental research, 2023)

What was measured:
[1] = type: in vivo; conditions: human urine after limonene inhalation
[2] = Stable isotope tracing in mouse urine after i.p. limonene or limonene-d5; conditions: after limonene / limonene-d5 66.8 mg/kg i.p.; overnight urine
[3] = ref Falk-Filipsson et al., 1993; cited from earlier work

Compound | Observed Tmax ([1]; creatinine-normalized peak response) [h] | Elimination t1/2 ([1]; pseudo one-compartment model) [h] | Ka (first-order urinary generation rate constant) ([1]; pseudo one-compartment model) [h⁻¹] | Ke (first-order urinary elimination rate constant) ([1]; pseudo one-compartment model) [h⁻¹] | Detection in mouse urine [2] | Half-life in blood (t1/2α) [3]
C=C(C)C1CCC(C(=O)O)CC1 (stereo not drawn) [LM1, DHPA] | 1 | 1.01 ± 0.40 | 0.93 ± 0.37 | 0.68 ± 0.27 | absent | –
C=C(C)[C@H]1CC=C(C)CC1 [Limonene] | – | – | – | – | – | ~ 3 min
